Assays:
Format in all cases: cell-based, human
[1] = system: SR; test: NCI60 antitumor screening; conditions: for inhibition at 10 µM: Homo sapiens, 10 μM single dose, SR (leukaemia), read-out: growth inhibition percent (GI%); for GI%: 10 μM one-dose, Table 1
[2] = system: SK-MEL-28; test: NCI60 antitumor screening; conditions: Homo sapiens; 10 μM single dose; SK-MEL-28 (melanoma); read-out: growth inhibition percent (GI%)
[3] = system: NCI/ADR-RES; test: NCI60 antitumor screening; conditions: Homo sapiens; 10 μM single dose; NCI/ADR-RES (ovarian cancer); read-out: growth inhibition percent (GI%)
[4] = system: NCI-H23; test: NCI60 antitumor screening; conditions: Homo sapiens; 10 μM single dose; NCI-H23 (non-small cell lung cancer); read-out: growth inhibition percent (GI%)
[5] = system: DU-145; test: NCI60 antitumor screening; conditions: Homo sapiens, DU-145; read-out: growth inhibition percent (GI%)
[6] = system: SK-OV-3; test: NCI60 antitumor screening; conditions: Homo sapiens; 10 μM single dose; SK-OV-3 (ovarian cancer); read-out: growth inhibition percent (GI%)
[7] = system: RXF 393; test: NCI60 antitumor screening; conditions: for inhibition at 10 µM: Homo sapiens, 10 μM single dose, RXF 393 (renal cancer), read-out: growth inhibition percent (GI%); for GI%: 10 μM one-dose, Table 1
[8] = system: UACC-62; test: NCI60 antitumor screening; conditions: Homo sapiens; 10 μM single dose; UACC-62 (melanoma); read-out: growth inhibition percent (GI%)
[9] = system: LOX IMVI; test: NCI60 antitumor screening; conditions: Homo sapiens; 10 μM single dose; LOX IMVI (melanoma); read-out: growth inhibition percent (GI%)
[10] = system: OVCAR-4; test: NCI60 antitumor screening; conditions: for inhibition at 10 µM: Homo sapiens, 10 μM single dose, OVCAR-4 (ovarian cancer), read-out: growth inhibition percent (GI%); for GI%: 10 μM one-dose, Table 1
[11] = system: NCI60 cell lines panel; test: NCI60 antitumor screening, full panel; conditions: for One-dose activity over the NCI60 panel: 10 μM; for inhibition at 10 µM: Homo sapiens, 10 μM single dose, mean over NCI60 cell lines, read-out: Mean growth inhibition percent (GI%)
Summary of the method: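 Single-concentration screen at 10 μM across the NCI60 panel (leukaemia, NSCLC, colon, CNS, melanoma, ovarian, renal, prostate, breast). Results are expressed as percent growth inhibition (GI%) of treated lines.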

[12] = system: OVCAR-8; test: NCI60 antitumor screening; conditions: Homo sapiens; 10 μM single dose; OVCAR-8 (ovarian cancer); read-out: growth inhibition percent (GI%)
[13] = system: COLO 205; test: NCI60 antitumor screening; conditions: Homo sapiens; 10 μM single dose; COLO 205 (colon cancer); read-out: growth inhibition percent (GI%)
[14] = system: HOP-92; test: NCI60 antitumor screening; conditions: Homo sapiens; 10 μM single dose; HOP-92 (non-small cell lung cancer); read-out: growth inhibition percent (GI%)
[15] = system: RPMI-8226; test: NCI60 antitumor screening; conditions: Homo sapiens; 10 μM single dose; RPMI-8226 (leukaemia); read-out: growth inhibition percent (GI%)
[16] = system: EKVX; test: NCI60 antitumor screening; conditions: Homo sapiens; 10 μM single dose; EKVX (non-small cell lung cancer); read-out: growth inhibition percent (GI%)
[17] = system: HCC-2998; test: NCI60 antitumor screening; conditions: Homo sapiens; 10 μM single dose; HCC-2998 (colon cancer); read-out: growth inhibition percent (GI%)
[18] = system: MDA-MB-231/ATCC; test: NCI60 antitumor screening; conditions: Homo sapiens; 10 μM single dose; MDA-MB-231/ATCC (breast cancer); read-out: growth inhibition percent (GI%)
[19] = system: NCI-H226; test: NCI60 antitumor screening; conditions: for inhibition at 10 µM: Homo sapiens, 10 μM single dose, NCI-H226 (non-small cell lung cancer), read-out: growth inhibition percent (GI%); for GI%: 10 μM one-dose, Table 1
[20] = system: SW-620; test: NCI60 antitumor screening; conditions: Homo sapiens; 10 μM single dose; SW-620 (colon cancer); read-out: growth inhibition percent (GI%)
[21] = system: UO-31; test: NCI60 antitumor screening; conditions: Homo sapiens; 10 μM single dose; UO-31 (renal cancer); read-out: growth inhibition percent (GI%)
[22] = system: SK-MEL-2; test: NCI60 antitumor screening; conditions: Homo sapiens; 10 μM single dose; SK-MEL-2 (melanoma); read-out: growth inhibition percent (GI%)
[23] = system: BT-549; test: NCI60 antitumor screening; conditions: Homo sapiens; 10 μM single dose; BT-549 (breast cancer); read-out: growth inhibition percent (GI%)
[24] = system: HCT-116; test: NCI60 antitumor screening; conditions: Homo sapiens; 10 μM single dose; HCT-116 (colon cancer); read-out: growth inhibition percent (GI%)

Structure (SMILES) | inhibition at 10 µM [1] [%] | inhibition at 10 µM [2] [%] | inhibition at 10 µM [3] [%] | inhibition at 10 µM [4] [%] | inhibition at 10 µM [5] [%] | inhibition at 10 µM [6] [%] | inhibition at 10 µM [7] [%] | inhibition at 10 µM [8] [%] | inhibition at 10 µM [9] [%] | inhibition at 10 µM [10] [%] | inhibition at 10 µM [11] [%] | inhibition at 10 µM [12] [%] | inhibition at 10 µM [13] [%] | inhibition at 10 µM [14] [%] | inhibition at 10 µM [15] [%] | inhibition at 10 µM [16] [%] | inhibition at 10 µM [17] [%] | inhibition at 10 µM [18] [%] | inhibition at 10 µM [19] [%] | inhibition at 10 µM [20] [%] | also measured
N#Cc1c(-c2ccc(F)cc2)nc(SCc2ccc([N+](=O)[O-])cc2)nc1N1CCNCC1 [4g, 4-(4-Fluorophenyl)-2-((4-nitrobenzyl)thio)-6-(piperazin-1-yl) pyrimidine-5-carbonitrile] | < 10 | < 10 | < 10 | < 10 | < 10 | < 10 | 15.2 | < 10 | < 10 | < 10 | < 10 | < 10 | < 10 | < 10 | < 10 | < 10 | < 10 | < 10 | < 10 | < 10 | One-dose activity over the NCI60 panel [11]: inactive; inhibition at 10 µM [21]: 11.9%; inhibition at 10 µM [22]: < 10%; inhibition at 10 µM [23]: < 10%; inhibition at 10 µM [24]: < 10%
Cc1ccc(CSc2nc(-c3ccc(F)cc3)c(C#N)c(N3CCNCC3)n2)cc1 [4h, 4-(4-Fluorophenyl)-2-((4-methylbenzyl)thio)-6-(piperazin-1-yl)pyrimidine-5-carbonitrile] | < 10 | < 10 | < 10 | < 10 | < 10 | < 10 | < 10 | < 10 | < 10 | < 10 | < 10 | < 10 | < 10 | < 10 | < 10 | < 10 | < 10 | < 10 | < 10 | < 10 | One-dose activity over the NCI60 panel [11]: inactive; inhibition at 10 µM [21]: 12.1%; inhibition at 10 µM [22]: < 10%; inhibition at 10 µM [23]: < 10%; inhibition at 10 µM [24]: < 10%
CN1CCN(c2nc(SCc3ccccc3)nc(-c3ccc(F)cc3)c2C#N)CC1 [4i, 2-(Benzylthio)-4-(4-fluorophenyl)-6-(4-methylpiperazin-1-yl) pyrimidine-5-carbonitrile] | 71 | < 10 | < 10 | < 10 | < 10 | < 10 | 49.7 | 19.6 | 25.4 | 22.5 | 24.3 | 14.1 | 13.6 | 22.7 | 56.4 | 20.2 | < 10 | 15.9 | < 10 | 10 | GI% [1]: 70.98%; GI% [7]: — (GI value > 70%); GI% [10]: — (GI value > 70%); GI% [19]: — (GI value > 70%); inhibition at 10 µM [21]: 36%; inhibition at 10 µM [22]: < 10%; inhibition at 10 µM [23]: < 10%; inhibition at 10 µM [24]: 45.8%
CN1CCN(c2nc(SCc3ccc(F)cc3)nc(-c3ccc(F)cc3)c2C#N)CC1 [4j, 2-((4-Fluorobenzyl)thio)-4-(4-fluorophenyl)-6-(4-methylpiperazin-1-yl)pyrimidine-5-carbonitrile] | < 10 | 16.2 | 42.9 | 22.2 | < 10 | 55.5 | 80.6 | 22.5 | 22.9 | 24.1 | 25.1 | 32 | < 10 | 66.2 | 15 | 18.4 | < 10 | 45.8 | 37.8 | < 10 | GI% [1]: — (GI value > 70%); GI% [7]: 80.61%; GI% [10]: — (GI value > 70%); GI% [19]: — (GI value > 70%); inhibition at 10 µM [21]: 30.1%; inhibition at 10 µM [22]: < 10%; inhibition at 10 µM [23]: 32%; inhibition at 10 µM [24]: 25.3%
